Values of other authors as cited in US7943663B2, “Process and an apparatus for producing episesamin-rich compositions” (Suntory Holdings Limited, priority 2005, dated 2011).

Key:
[1] = tested on: β-oxidation enzymes in the liver; conditions: rats, separately administered orally; compared with sesamin
fatty acid synthases = conditions: rats, separately administered orally; sesamin versus episesamin
[2] = rat, po

SMILES | gene expression and enzymatic activity of β-oxidation enzymes in the liver [1] | activity for inhibiting fatty acid synthases (fatty acid synthases) | transfer into organs (in vivo distribution) [2]
c1cc2c(cc1[C@H]1OC[C@H]3[C@@H]1CO[C@H]3c1ccc3c(c1)OCO3)OCO2 [Episesamin, episesamin] | markedly increased | no difference | at least twice as much as that of sesamin
c1cc2c(cc1[C@H]1OC[C@H]3[C@@H]1CO[C@@H]3c1ccc3c(c1)OCO3)OCO2 [Sesamin, sesamin] |  | no difference | 
